# PubChem BioAssay (NCI)
#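 In this assay, cells in 96-well plates receive the compound at five concentrations for 48 hours. Endpoints are linearly interpolated between the surrounding concentrations. TGI: concentration producing complete growth inhibition.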
# Tests used:
# Assay in all cases: growth of human tumour cells (NCI), 48 h
# RPMI-8226 leukemia = tested on: RPMI-8226 leukemia
# M14 melanoma = tested on: M14 melanoma
# LOX IMVI melanoma = tested on: LOX IMVI melanoma
# MOLT-4 leukemia = tested on: MOLT-4 leukemia
# XF 498 CNS = tested on: XF 498 CNS
# SF-295 CNS = tested on: SF-295 CNS
# HOP-18 NSCLC = tested on: HOP-18 NSCLC
# CCRF-CEM leukemia = tested on: CCRF-CEM leukemia
# SF-539 CNS = tested on: SF-539 CNS
# OVCAR-8 ovarian = tested on: OVCAR-8 ovarian
# HOP-62 NSCLC = tested on: HOP-62 NSCLC
# HCT-116 colon = tested on: HCT-116 colon
# PC-3 prostate = tested on: PC-3 prostate
# SK-MEL-5 melanoma = tested on: SK-MEL-5 melanoma
# U251 CNS = tested on: U251 CNS
# 786-0 renal = tested on: 786-0 renal
# HT29 colon = tested on: HT29 colon
# MDA-N = tested on: MDA-N
# NCI-H23 lung = tested on: NCI-H23 lung
# DU-145 prostate = tested on: DU-145 prostate
# NCI-H460 lung = tested on: NCI-H460 lung
# BT-549 breast = tested on: BT-549 breast
# NCI-H226 lung = tested on: NCI-H226 lung
# COLO 205 colon = tested on: COLO 205 colon
# HCT-15 colon = tested on: HCT-15 colon
# UO-31 renal = tested on: UO-31 renal
# EKVX NSCLC = tested on: EKVX NSCLC
# SN12C renal = tested on: SN12C renal
# SK-OV-3 ovarian = tested on: SK-OV-3 ovarian
# KM12 colon = tested on: KM12 colon
# M19-MEL melanoma = tested on: M19-MEL melanoma
# NCI/ADR-RES ovarian = tested on: NCI/ADR-RES ovarian
# DMS 114 small cell lung = tested on: DMS 114 small cell lung
# TK-10 renal = tested on: TK-10 renal
# CAKI-1 renal = tested on: CAKI-1 renal
# SNB-19 CNS = tested on: SNB-19 CNS
# MALME-3M melanoma = tested on: MALME-3M melanoma
# HCC-2998 colon = tested on: HCC-2998 colon
# HL-60(TB) leukemia = tested on: HL-60(TB) leukemia
# K-562 leukemia = tested on: K-562 leukemia
# SNB-78 CNS = tested on: SNB-78 CNS
# SNB-75 CNS = tested on: SNB-75 CNS
# ACHN renal = tested on: ACHN renal
# A498 renal = tested on: A498 renal
# UACC-257 melanoma = tested on: UACC-257 melanoma
# OVCAR-4 ovarian = tested on: OVCAR-4 ovarian
# NCI-H522 lung = tested on: NCI-H522 lung
# MDA-MB-435 = tested on: MDA-MB-435
# IGROV1 ovarian = tested on: IGROV1 ovarian
# OVCAR-5 ovarian = tested on: OVCAR-5 ovarian
# RXF 393 renal = tested on: RXF 393 renal
# HOP-92 NSCLC = tested on: HOP-92 NSCLC
# SF-268 CNS = tested on: SF-268 CNS
# OVCAR-3 ovarian = tested on: OVCAR-3 ovarian
# SR leukemia = tested on: SR leukemia
# HS 578T breast = tested on: HS 578T breast
# MCF7 breast = tested on: MCF7 breast
# SW-620 colon = tested on: SW-620 colon
# DLD-1 colon = tested on: DLD-1 colon
# A549 NSCLC = tested on: A549 NSCLC
# SK-MEL-28 melanoma = tested on: SK-MEL-28 melanoma
# UACC-62 melanoma = tested on: UACC-62 melanoma
# LXFL 529 NSCLC = tested on: LXFL 529 NSCLC
# KM20L2 colon = tested on: KM20L2 colon
# SK-MEL-2 melanoma = tested on: SK-MEL-2 melanoma
# DMS 273 small cell lung = tested on: DMS 273 small cell lung
compound,measurement,setting,value
COc1ccc(/C=C2\CCC(CN(C)C)C2=O)cc1 (centres undefined),TGI,RPMI-8226 leukemia,3.97 µM
same,TGI,M14 melanoma,7.02 µM
same,TGI,LOX IMVI melanoma,3.63 µM
same,TGI,MOLT-4 leukemia,6.85 µM
same,TGI,XF 498 CNS,16.3 µM
same,TGI,SF-295 CNS,32.1 µM
same,TGI,HOP-18 NSCLC,19.9 µM
same,TGI,CCRF-CEM leukemia,> 25.9 µM
same,TGI,SF-539 CNS,16 µM
same,TGI,OVCAR-8 ovarian,12.1 µM
same,TGI,HOP-62 NSCLC,33.6 µM
same,TGI,HCT-116 colon,8.27 µM
same,TGI,PC-3 prostate,19.6 µM
same,TGI,SK-MEL-5 melanoma,16.3 µM
same,TGI,U251 CNS,32.7 µM
same,TGI,786-0 renal,3.17 µM
same,TGI,HT29 colon,24.1 µM
same,TGI,MDA-N,9.09 µM
same,TGI,NCI-H23 lung,18.3 µM
same,TGI,DU-145 prostate,5.8 µM
same,TGI,NCI-H460 lung,36.4 µM
same,TGI,BT-549 breast,9.27 µM
same,TGI,NCI-H226 lung,31.6 µM
same,TGI,COLO 205 colon,10.4 µM
same,TGI,HCT-15 colon,6.49 µM
same,TGI,UO-31 renal,15.5 µM
same,TGI,EKVX NSCLC,37.5 µM
same,TGI,SN12C renal,32.8 µM
same,TGI,SK-OV-3 ovarian,31.4 µM
same,TGI,KM12 colon,22.1 µM
same,TGI,M19-MEL melanoma,26.6 µM
same,TGI,NCI/ADR-RES ovarian,5.07 µM
same,TGI,DMS 114 small cell lung,21.6 µM
same,TGI,TK-10 renal,14 µM
same,TGI,CAKI-1 renal,5.05 µM
same,TGI,SNB-19 CNS,23.2 µM
same,TGI,MALME-3M melanoma,11.1 µM
same,TGI,HCC-2998 colon,19.1 µM
same,TGI,HL-60(TB) leukemia,4.23 µM
same,TGI,K-562 leukemia,7.25 µM
same,TGI,SNB-78 CNS,51.9 µM
same,TGI,SNB-75 CNS,25.6 µM
same,TGI,ACHN renal,21.3 µM
same,TGI,A498 renal,28.9 µM
same,TGI,UACC-257 melanoma,13.3 µM
same,TGI,OVCAR-4 ovarian,16.1 µM
same,TGI,NCI-H522 lung,2.84 µM
same,TGI,MDA-MB-435,3.63 µM
same,TGI,IGROV1 ovarian,18.4 µM
same,TGI,OVCAR-5 ovarian,30 µM
same,TGI,RXF 393 renal,13.6 µM
same,TGI,HOP-92 NSCLC,28.2 µM
same,TGI,SF-268 CNS,19.1 µM
same,TGI,OVCAR-3 ovarian,10.6 µM
same,TGI,SR leukemia,6.21 µM
same,TGI,HS 578T breast,> 100 µM
same,TGI,MCF7 breast,6.03 µM
same,TGI,SW-620 colon,4.32 µM
same,TGI,DLD-1 colon,12.5 µM
same,TGI,A549 NSCLC,30.6 µM
same,TGI,SK-MEL-28 melanoma,14.6 µM
same,TGI,UACC-62 melanoma,22.6 µM
same,TGI,LXFL 529 NSCLC,4.17 µM
same,TGI,KM20L2 colon,36.8 µM
same,TGI,SK-MEL-2 melanoma,17.6 µM
OC1OC2COC(c3ccccc3)OC2C(O)C1O (centres undefined),TGI,RPMI-8226 leukemia,> 100 µM
same,TGI,M14 melanoma,> 100 µM
same,TGI,LOX IMVI melanoma,> 100 µM
same,TGI,MOLT-4 leukemia,> 100 µM
same,TGI,XF 498 CNS,> 100 µM
same,TGI,SF-295 CNS,> 100 µM
same,TGI,HOP-18 NSCLC,> 100 µM
same,TGI,CCRF-CEM leukemia,> 100 µM
same,TGI,SF-539 CNS,> 100 µM
same,TGI,OVCAR-8 ovarian,> 100 µM
same,TGI,HOP-62 NSCLC,> 100 µM
same,TGI,HCT-116 colon,> 100 µM
same,TGI,SK-MEL-5 melanoma,> 100 µM
same,TGI,U251 CNS,> 100 µM
same,TGI,786-0 renal,> 100 µM
same,TGI,HT29 colon,> 100 µM
same,TGI,NCI-H23 lung,> 100 µM
same,TGI,NCI-H460 lung,> 100 µM
same,TGI,NCI-H226 lung,> 100 µM
same,TGI,COLO 205 colon,> 100 µM
same,TGI,HCT-15 colon,> 100 µM
same,TGI,UO-31 renal,> 100 µM
same,TGI,EKVX NSCLC,> 100 µM
same,TGI,SN12C renal,> 100 µM
same,TGI,SK-OV-3 ovarian,> 100 µM
same,TGI,KM12 colon,> 100 µM
same,TGI,DMS 273 small cell lung,> 100 µM
same,TGI,M19-MEL melanoma,> 100 µM
same,TGI,DMS 114 small cell lung,> 100 µM
same,TGI,TK-10 renal,> 100 µM
same,TGI,CAKI-1 renal,> 100 µM
same,TGI,SNB-19 CNS,> 100 µM
same,TGI,MALME-3M melanoma,> 100 µM
same,TGI,HCC-2998 colon,> 100 µM
same,TGI,HL-60(TB) leukemia,> 100 µM
same,TGI,K-562 leukemia,> 100 µM
same,TGI,SNB-78 CNS,> 100 µM
same,TGI,ACHN renal,> 100 µM
same,TGI,A498 renal,> 100 µM
same,TGI,UACC-257 melanoma,> 100 µM
same,TGI,OVCAR-4 ovarian,> 100 µM
same,TGI,NCI-H522 lung,> 100 µM
same,TGI,IGROV1 ovarian,> 100 µM
same,TGI,OVCAR-5 ovarian,> 100 µM
same,TGI,HOP-92 NSCLC,> 100 µM
same,TGI,SF-268 CNS,> 100 µM
same,TGI,OVCAR-3 ovarian,> 100 µM
same,TGI,SW-620 colon,> 100 µM
same,TGI,DLD-1 colon,> 100 µM
same,TGI,A549 NSCLC,> 100 µM
same,TGI,UACC-62 melanoma,> 100 µM
same,TGI,LXFL 529 NSCLC,> 100 µM
same,TGI,KM20L2 colon,> 100 µM
same,TGI,SK-MEL-2 melanoma,> 100 µM
